Earlier results in patent US5484785A, “Salts of a quinolone-carboxylic acid” (Cheil Foods & Chemicals, Inc., priority 1992, dated 1996).

How the values were obtained:
[1] = system: bacteria

## O=C(O)c1cn(C2CC2)c2cc(N3CCNCC3)c(F)cc2c1=O [Ciprofloxacin, 1-cyclopropyl-6-fluoro-1,4-dihydro-4-oxo-7-(1-piperazinyl)-quinoline-3-carboxylic acid]
[1]
  Antibacterial activities (in words): potent antibacterial activities

## methanesulfonate
solution
  pH of known Ciprofloxacin salts (in words): very low value of pH

## O=C(O)c1cn(C2CC2)c2cc(N3CCNCC3)c(F)cc2c1=O [Ciprofloxacin lactate]
lactate: contained in the injection in an excessive amount
  Precipitation in injection/solution (in words): tends to occur precipitation in an injection
